Data published in patent US20210137911A1, “NOVEL CHRONOTHERAPY BASED ON CIRCADIAN RHYTHMS” (THE TRUSTEES OF THE UNIVERSITY OF PENNSYLVANIA, priority 2014, published 2021).
Read-outs that look alike come from different tables or passages of the source. Positions of bridges follow the written chain, without caps; N, C: chain ends. Non-standard residues stand in square brackets, D forms with d. Residues, ends and D or L forms follow the SMILES beside them.

What was measured:
[1] = cited from earlier work
[2] = Trial of bedtime versus awakening administered Valsartan, blood pressure; assay type: in vivo
Description: Taking an angiotensin receptor blocker (ARB) or an […] (ACE) inhibitor before bedtime is known to cause a drop in blood pressure. […] Thus, current treatment methods are insufficient to induce a dip in non-dippers.

[3] = cited from earlier work; remark: listed apart in the source
[4] = half-life of therapeutic compound as listed in Table 1
[5] = half-life of top selling therapeutic compounds (Table 1)

| Compound | ½ Life ([1]; in vivo) [h] | other results |
| --- | --- | --- |
| C[C@]12C=CC(=O)C=C1CC[C@H]1[C@@H]3C[C@@H](O)[C@](O)(C(=O)CO)[C@@]3(C)C[C@H](O)[C@@]12F [Triamcinolone] | 1.466 |  |
| Nc1nc(N)c2nc(-c3ccccc3)c(N)nc2n1 [Triamterene] | 4.25 |  |
| OC(CCN1CCCCC1)(c1ccccc1)C1CCCCC1 (centres unmarked) [Trihexyphenidyl] | 3.3 |  |
| COc1cc2c3cc1Oc1cc(ccc1O)C[C@@H]1c4c(cc(OC)c(O)c4Oc4ccc(cc4)C[C@@H]3N(C)CC2)CC[N+]1(C)C [Tubocurarine] | 1 |  |
| CCCCC(=O)N(Cc1ccc(-c2ccccc2-c2nnn[nH]2)cc1)[C@H](C(=O)O)C(C)C [Valsartan] |  | net blood pressure difference bedtime vs awakening, first value of printed pair ([2]; bedtime minus awakening): 8 mmHg; net blood pressure difference bedtime vs awakening, second value of printed pair ([2]; bedtime minus awakening): 6 mmHg; better result of bedtime group than the awakening group ([2]; bedtime vs awakening group): 10 mmHg; time at which concentration in plasma reaches the maximum after administration [3]: 2 to 4 h |
| CC(C)[C@@H]1NC(=O)[C@H](CCCCN)NC(=O)[C@@H](Cc2c[nH]c3ccccc23)NC(=O)[C@H](Cc2ccc(O)cc2)NC(=O)[C@@H](NC(=O)[C@H](N)Cc2ccccc2)CSSC[C@@H](C(=O)N[C@@H](Cc2c[nH]c3ccccc23)C(N)=O)NC1=O [Vapreotide] (H-[dF]CY[dW]KVCW-NH2; disulfide 2-7) | 0.5 |  |
| NC(=O)CC[C@@H]1NC(=O)[C@H](Cc2ccccc2)NC(=O)[C@H](Cc2ccc(O)cc2)NC(=O)[C@@H](N)CSSC[C@@H](C(=O)N2CCC[C@H]2C(=O)N[C@@H](CCCN=C(N)N)C(=O)NCC(N)=O)NC(=O)[C@H](CC(N)=O)NC1=O [Vasopressin] | 0.166 |  |
| CC(=O)O[C@H]1C[C@@H]2CC[C@@H]3[C@H](CC[C@@]4(C)[C@H]3C[C@H]([N+]3(C)CCCCC3)[C@@H]4OC(C)=O)[C@@]2(C)C[C@@H]1N1CCCCC1 [Vecuronium] | 0.85 |  |
| N#C[C@@H]1CCCN1C(=O)CNC12CC3CC(CC(O)(C3)C1)C2 [Vildagliptin] | 1.5 |  |
| CC[C@]1(O)C[C@H]2CN(CCc3c([nH]c4ccccc34)[C@@](C(=O)OC)(c3cc4c(cc3OC)N(C=O)[C@H]3[C@@](O)(C(=O)OC)[C@H](OC(C)=O)[C@]5(CC)C=CCN6CC[C@]43[C@@H]65)C2)C1 [Vincristine] | 5 |  |
| O=C(CCCCCCC(=O)Nc1ccccc1)NO [Vorinostat] | 2 |  |
| CC(=O)N[C@H]1[C@H]([C@H](O)[C@H](O)CO)OC(C(=O)O)=C[C@@H]1N=C(N)N [Zanamivir] | 2.5 |  |
| Cc1cn([C@H]2C[C@H](N=[N+]=[N-])[C@@H](CO)O2)c(=O)[nH]c1=O [Zidovudine] | 1.1 |  |
| CN(C)CCc1c[nH]c2ccc(C[C@H]3COC(=O)N3)cc12 [Zolmitriptan] | 3 |  |
| Cc1ccc(-c2nc3ccc(C)cn3c2CC(=O)N(C)C)cc1 [Zolpidem] | 2.6 |  |
| CN1CCN(C(=O)OC2c3nccnc3C(=O)N2c2ccc(Cl)cn2)CC1 (centres unmarked) [Zopiclone] | 5 |  |
| O=C(O)c1cccnc1 [niacin, reference compound] |  | ½ Life [1, 4]: 0.33 h; half-life ([1]; see Table 1): 19.8 min |
| Aldesleukin | 0.216 |  |
| Alglucosidase alfa | 2.3 |  |
| Anakinra | 4 |  |
| Bleomycin |  | ½ Life [1, 5]: 1.916 h |
| Corticotropin (SYSMEHFRWGKPVGKKRRPVKVYPNGAEDESAEAFPLEF; Corticotropin; UniProt P01189 138-176, looked up) |  | ½ Life [1, 5]: 0.25 h |
| Defibrotide | 1 |  |

| Compound | ½ Life ([1]; in vivo) [h] | other results |
| --- | --- | --- |
| Denileukin diftitox |  | ½ Life [1, 5]: 1.166 h |
| Drotrecogin alfa | 5.5 |  |
| Enoxaparin | 4.5 |  |
| Galsulfase | 0.15 |  |
| Heparin | 1.5 |  |
| Insulin Detemir | 5 |  |
| Insulin Glulisine | 0.7 |  |
| Insulin Lispro | 1 |  |
| Interferon Alfa-2a, Recombinant | 2 |  |
| Interferon alfacon-1 | 1.3 |  |
| Leptin | 0.415 |  |
| Mecasermin | 2 |  |
| Muromonab | 0.8 |  |
| Nesiritide | 0.3 |  |
| Nitroprusside | 0.033 |  |
| OspA lipoprotein |  | ½ Life [1, 4]: 1.2 h |
| Pegaptanib | 3 |  |
| Pentosan Polysulfate | 4.8 |  |
| Rituximab | 0.8 |  |
| Tinzaparin | 1.366 |  |
| Tositumomab | 0.8 |  |
| Urokinase | 0.2 |  |
| Vitamin A | 1.9 |  |
